Laboratory results as given in PMC5940854, “Nitrothiophene carboxamides, a novel narrow spectrum antibacterial series: Mechanism of action and Efficacy” (Scientific Reports, 2018).
≈ marks a conversion by molar mass, not a printed value. Where “and” joins values, the source holds several entries; their conditions need not be identical. Equal values may be shown once.

What was measured:
[1] = molecular target: T1, AcrB efflux pump in E. coli BW25113 (Escherichia coli, UniProt P31224); assay: Nile red efflux assay (whole-cell competition); type: cell-based
T1 construct: endogenous in cells; host or cells: E. coli BW25113 (wild type)
Protocol: The Nile red assay is adopted from Bohnert et al.[18]. An overnight culture of E. coli strain BW25113 is harvested and is resuspended in 20 mM potassium phosphate buffer (pH 7.0) containing 1 mM MgCl2 (PPB). The cells are adjusted to an A660 of 1.0 in PPB and aliquoted into glass tubes (2 ml each). Carbonylcyanide-m-chlorophenylhydrazone (CCCP; a protonophore that uncouples the electron transport chain and thus inhibits AcrB mediated efflux) is added to a final concentration of 10 µM (5 mM stock solution in 50% DMSO) and incubated for 15 minutes before adding the potential competitor at desired concentrations. Nile red is then added (stock solution of 5 mM in 10% dimethyl formamide-90% ethanol [vol/vol]) to a final concentration of 5 µM. The cell suspension is incubated at room temperature on a shaker for 3 hours. The cells are harvested and resuspended in 2 ml PPB in the presence of the competitor. The cell suspension is aliquoted in a fluorimeter cuvette, to which, 100 µl of 1 M Glucose is added to activate the electron transport chain. The rate of efflux is measured by Tefflux50, it is the time taken for 50% of Nile red to be effluxed out in presence of the compounds. The fluorescence is measured (Excitation 552 nm, Emission 636 nm) for 200 seconds.

[2] = tested on: E. coli ∆nfsAB & ∆acrB+nfnB; parameters: unit not given beside the values
Protocol: The inoculum used for all the experiments is derived from a single seed lot that is maintained as glycerol stocks at −80 °C and are sub cultured on LB plate for isolated colonies. Single colony of each strain is grown in M9 medium. All test compound stocks and dilutions are prepared in DMSO. Serial two-fold dilutions of compounds are prepared separately, with the concentrations ranging from 2 mg/mL to 0.015 mg/mL. To 150 µl (3–7 × 10^5 CFU/ml) of bacterial culture in 96 well microtitre plates, 3 μL compound from each of the dilutions is added to respective wells to obtain final concentrations ranging from 40 µg/mL to 0.3 µg/mL of the test compounds. Media control, culture control and appropriate reference drug controls are included. […] Growth is monitored by checking absorbance at 600 nm (A600). […] The samples from MIC and above concentrations are plated for MBC (Minimum Bactericidal Concentration). The samples are diluted 1:10 and plated on LB agar plates. […] The killing kinetics is determined by enumerating survivors at various time points following compound exposure. E. coli cells (~10^7 CFU/ml; A600 of 0.1) are treated with various concentrations (40 µg/mL to 0.3 µg/mL) of compounds in a 96-well microtitre plate. At various time intervals (0 to 8 h), 30 μl volumes of treated cultures are serially diluted and plated on LB agar plates. […] Data is expressed as the log10 CFU for each drug treatment.

[3] = tested on: clinical isolate of E. coli (Strain No. 371); assay: Neutropenic thigh infection, E. coli clinical isolate; type: in vivo, BALB/c mice
E. coli ∆acrB JW0451-2 = assay: MIC, E. coli ∆acrB; type: cell-based; parameters: MIC ∆acrB: unit not given beside the values
In short: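 Single colonies grown in M9; compounds diluted two-fold in DMSO and added to 3–7 × 10^5 CFU/ml cultures, final 40 to 0.3 µg/mL. Wells at and above MIC diluted 1:10 and plated on LB agar for MBC.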

[4] = tested on: E. coli clinical isolates; assay: MIC on panel of E. coli clinical isolates; type: cell-based

T1 sequence (P0AE06 25-397): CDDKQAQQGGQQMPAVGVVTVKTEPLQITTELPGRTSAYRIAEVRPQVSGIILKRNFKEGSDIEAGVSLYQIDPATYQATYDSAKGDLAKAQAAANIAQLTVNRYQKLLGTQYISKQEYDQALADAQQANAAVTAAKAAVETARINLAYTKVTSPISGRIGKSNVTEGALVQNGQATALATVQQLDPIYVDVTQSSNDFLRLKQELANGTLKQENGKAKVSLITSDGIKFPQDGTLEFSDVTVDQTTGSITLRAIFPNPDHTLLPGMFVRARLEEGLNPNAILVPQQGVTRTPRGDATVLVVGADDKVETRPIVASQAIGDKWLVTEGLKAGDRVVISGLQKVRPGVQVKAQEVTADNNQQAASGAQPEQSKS
T1 sequence (P31224 whole entry): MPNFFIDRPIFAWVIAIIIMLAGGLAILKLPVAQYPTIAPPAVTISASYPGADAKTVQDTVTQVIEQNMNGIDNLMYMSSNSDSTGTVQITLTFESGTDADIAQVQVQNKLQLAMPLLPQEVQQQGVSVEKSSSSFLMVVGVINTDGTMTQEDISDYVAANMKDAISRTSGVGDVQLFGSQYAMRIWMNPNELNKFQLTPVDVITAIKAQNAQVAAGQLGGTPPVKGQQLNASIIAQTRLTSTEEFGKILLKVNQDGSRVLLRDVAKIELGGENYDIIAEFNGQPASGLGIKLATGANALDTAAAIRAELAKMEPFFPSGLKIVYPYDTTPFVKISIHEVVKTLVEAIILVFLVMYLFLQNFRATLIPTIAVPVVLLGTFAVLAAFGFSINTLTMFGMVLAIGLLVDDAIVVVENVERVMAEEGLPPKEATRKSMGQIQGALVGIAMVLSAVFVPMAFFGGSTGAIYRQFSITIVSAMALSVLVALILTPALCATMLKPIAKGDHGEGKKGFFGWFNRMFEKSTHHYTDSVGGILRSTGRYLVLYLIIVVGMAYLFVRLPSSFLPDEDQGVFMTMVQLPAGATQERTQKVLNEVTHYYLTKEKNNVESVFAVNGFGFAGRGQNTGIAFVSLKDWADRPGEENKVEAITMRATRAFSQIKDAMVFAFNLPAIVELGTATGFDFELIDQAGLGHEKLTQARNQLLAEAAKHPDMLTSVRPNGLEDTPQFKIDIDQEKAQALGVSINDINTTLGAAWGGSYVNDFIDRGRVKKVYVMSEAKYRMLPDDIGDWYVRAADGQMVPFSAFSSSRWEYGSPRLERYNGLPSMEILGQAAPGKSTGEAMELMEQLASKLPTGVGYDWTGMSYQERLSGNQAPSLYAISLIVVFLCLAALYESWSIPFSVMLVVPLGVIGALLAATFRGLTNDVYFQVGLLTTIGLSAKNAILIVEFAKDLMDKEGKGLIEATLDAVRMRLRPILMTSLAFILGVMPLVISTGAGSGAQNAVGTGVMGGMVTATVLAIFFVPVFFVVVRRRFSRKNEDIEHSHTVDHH
T1 sequence (P02930 23-493, further chain): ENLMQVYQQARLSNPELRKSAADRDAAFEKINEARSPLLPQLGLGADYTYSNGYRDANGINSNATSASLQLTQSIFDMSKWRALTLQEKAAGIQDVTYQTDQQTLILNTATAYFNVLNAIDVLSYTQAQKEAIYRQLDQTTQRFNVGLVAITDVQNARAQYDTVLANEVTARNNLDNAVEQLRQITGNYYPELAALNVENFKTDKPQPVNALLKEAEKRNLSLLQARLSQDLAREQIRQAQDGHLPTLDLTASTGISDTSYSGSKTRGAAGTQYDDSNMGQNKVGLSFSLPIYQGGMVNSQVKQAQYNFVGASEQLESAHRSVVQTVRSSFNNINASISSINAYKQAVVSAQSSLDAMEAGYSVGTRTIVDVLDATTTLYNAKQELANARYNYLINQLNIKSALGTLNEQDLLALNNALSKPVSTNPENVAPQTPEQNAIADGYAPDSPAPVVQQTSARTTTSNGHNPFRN

O=C(Nc1nc(-c2ccc(F)cc2F)cs1)c1ccc([N+](=O)[O-])s1 [compound 12, N-(4-(2,4-difluorophenyl)thiazol-2-yl)-5-nitrothiophene-2-carboxamide]
Tefflux50 ([1]; 1µM compound, time for 50% of Nile red to be effluxed, read for 200 seconds): 66.41 s
Tefflux50 ([1]; 9µM compound): 67.52 s
Tefflux50 ([1]; 27µM compound): 67.98 s
Tefflux50 ([1]; 81µM compound): 68.06 s
Tefflux50 ([1]; 100µM compound): 68.17 s
Tefflux50 ([1]; 200µM compound): 68.34 s
Tefflux50 ([1]; 400µM compound): 68 s and 68.25 s
Concentration of compound required for complete inhibition of Nile red efflux (Tefflux50 >200 seconds) ([1]; E. coli BW25113): > 400 µM
MIC ∆nfsAB & ∆acrB+nfnB [2]: 0.3
Log10CFU Mean Diff. vs. Untreated Controls ([3]; Study TI-2014-023, Clinical Isolate N. 371, 100mg/kg per oral): 1.907 Log10CFU
efficacy in thigh infection model (in words) ([3]; clinical isolate of E. coli): significantly bactericidal
MIC (E. coli ∆acrB JW0451-2; Escherichia coli, read-out: MIC acrB): 0.3 µg/mL (≈ 0.817 µM)
MIC ∆acrB (E. coli ∆acrB JW0451-2; Table S11): 0.3
MIC Range ([4]; 75 E.coli clinical isolates): 0.06 to 40 µg/mL
MIC50 ([4]; Escherichia coli, 75 E.coli clinical isolates, 50% clinical isolates): 2.5 µg/mL (≈ 6.81 µM)
MIC90 ([4]; Escherichia coli, 75 E.coli clinical isolates, 90% clinical isolates): 10 µg/mL (≈ 27.2 µM)
MIC ([4]; strain SEC001): 4 µg/mL (≈ 10.9 µM)
MIC ([4]; strain SEC002): 4 µg/mL (≈ 10.9 µM)
MIC ([4]; strain SEC003): 4 µg/mL (≈ 10.9 µM)
MIC ([4]; strain SEC004): 32 µg/mL (≈ 87.1 µM)
MIC ([4]; strain SEC005): 4 µg/mL (≈ 10.9 µM)
MIC ([4]; strain SEC006): 4 µg/mL (≈ 10.9 µM)
MIC ([4]; strain SEC007): 2 µg/mL (≈ 5.44 µM)
MIC ([4]; strain SEC008): 32 µg/mL (≈ 87.1 µM)
MIC ([4]; strain SEC011): 2 µg/mL (≈ 5.44 µM)
MIC ([4]; strain SEC012): 1 µg/mL (≈ 2.72 µM)
MIC ([4]; strain SEC013): 32 µg/mL (≈ 87.1 µM)
MIC ([4]; strain SEC014): 2 µg/mL (≈ 5.44 µM)
MIC ([4]; strain SEC015): 32 µg/mL (≈ 87.1 µM)
MIC ([4]; strain SEC016): 2 µg/mL (≈ 5.44 µM)
MIC ([4]; strain SEC017): 0.06 µg/mL (≈ 0.163 µM)
MIC ([4]; strain SEC018): 2 µg/mL (≈ 5.44 µM)
MIC ([4]; strain SEC019): 2 µg/mL (≈ 5.44 µM)
MIC ([4]; strain SEC020): 32 µg/mL (≈ 87.1 µM)
MIC ([4]; strain SEC021): 1 µg/mL (≈ 2.72 µM)
MIC ([4]; strain SEC022): 2 µg/mL (≈ 5.44 µM)
MIC ([4]; strain SEC023): 32 µg/mL (≈ 87.1 µM)
MIC ([4]; strain SEC024): 2 µg/mL (≈ 5.44 µM)
MIC ([4]; strain SEC025): 2 µg/mL (≈ 5.44 µM)
MIC ([4]; strain SEC026): 2 µg/mL (≈ 5.44 µM)
MIC ([4]; strain SEC028): 1 µg/mL (≈ 2.72 µM)
MIC ([4]; strain SEC029): 2 µg/mL (≈ 5.44 µM)
MIC ([4]; strain SEC031): 2 µg/mL (≈ 5.44 µM)
MIC ([4]; strain SEC032): 4 µg/mL (≈ 10.9 µM)
MIC ([4]; strain SEC033): 2 µg/mL (≈ 5.44 µM)
MIC ([4]; strain SEC034): 2 µg/mL (≈ 5.44 µM)
MIC ([4]; strain SEC035): 2 µg/mL (≈ 5.44 µM)
MIC ([4]; strain SEC036): 32 µg/mL (≈ 87.1 µM)
MIC ([4]; strain SEC037): 1 µg/mL (≈ 2.72 µM)
MIC ([4]; strain SEC038): 2 µg/mL (≈ 5.44 µM)
MIC ([4]; strain SEC039): 2 µg/mL (≈ 5.44 µM)
MIC ([4]; strain SEC040): 2 µg/mL (≈ 5.44 µM)
MIC ([4]; strain SEC041): 2 µg/mL (≈ 5.44 µM)
MIC ([4]; strain SEC042): 4 µg/mL (≈ 10.9 µM)
MIC ([4]; strain SEC043): 2 µg/mL (≈ 5.44 µM)
MIC ([4]; strain SEC044): 32 µg/mL (≈ 87.1 µM)
MIC ([4]; strain SEC045): 2 µg/mL (≈ 5.44 µM)
MIC ([4]; strain SEC046): 2 µg/mL (≈ 5.44 µM)
MIC ([4]; strain SEC047): 2 µg/mL (≈ 5.44 µM)
MIC ([4]; strain SEC048): 32 µg/mL (≈ 87.1 µM)
MIC ([4]; strain SEC049): 32 µg/mL (≈ 87.1 µM)
MIC ([4]; strain SEC050): 4 µg/mL (≈ 10.9 µM)
MIC ([4]; strain SEC051): 4 µg/mL (≈ 10.9 µM)
MIC ([4]; strain SEC052): 1 µg/mL (≈ 2.72 µM)
MIC ([4]; strain SEC053): 2 µg/mL (≈ 5.44 µM)
MIC ([4]; strain SEC054): 2 µg/mL (≈ 5.44 µM)
MIC ([4]; strain SEC055): 2 µg/mL (≈ 5.44 µM)
MIC ([4]; strain SEC057): 4 µg/mL (≈ 10.9 µM)
MIC ([4]; strain SEC058): 4 µg/mL (≈ 10.9 µM)
MIC ([4]; strain SEC059): 2 µg/mL (≈ 5.44 µM)
MIC ([4]; strain SEC060): 2 µg/mL (≈ 5.44 µM)
MIC ([4]; strain SEC061): 2 µg/mL (≈ 5.44 µM)
MIC ([4]; strain SEC062): 1 µg/mL (≈ 2.72 µM)
MIC ([4]; strain SEC063): 2 µg/mL (≈ 5.44 µM)
MIC ([4]; strain SEC064): 4 µg/mL (≈ 10.9 µM)
MIC ([4]; strain SEC065): 2 µg/mL (≈ 5.44 µM)
MIC ([4]; strain SEC067): 2 µg/mL (≈ 5.44 µM)
MIC ([4]; strain SEC068): 4 µg/mL (≈ 10.9 µM)
MIC ([4]; strain SEC069): 4 µg/mL (≈ 10.9 µM)
MIC ([4]; strain SEC070): 4 µg/mL (≈ 10.9 µM)
MIC ([4]; strain SEC071): 2 µg/mL (≈ 5.44 µM)
MIC ([4]; strain SEC072): 2 µg/mL (≈ 5.44 µM)
MIC ([4]; strain SEC073): 4 µg/mL (≈ 10.9 µM)
MIC ([4]; strain SEC074): 2 µg/mL (≈ 5.44 µM)
MIC ([4]; strain SEC075): 4 µg/mL (≈ 10.9 µM)
MIC ([4]; strain SEC076): 2 µg/mL (≈ 5.44 µM)
MIC ([4]; strain SEC077): 2 µg/mL (≈ 5.44 µM)
MIC ([4]; strain SEC078): 8 µg/mL (≈ 21.8 µM)
MIC ([4]; strain SEC079): 4 µg/mL (≈ 10.9 µM)
MIC ([4]; strain SEC080): 4 µg/mL (≈ 10.9 µM)
